Key:
Format in all cases: in vivo
Alopecurus myosuroides [1] = assay: Herbicidal post-emergence action; conditions: post-emergence method; for herbicidal effect against ALOMY (Alopecurus myosuroides): 80 g/ha
Summary of the method: (§1)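 One-leaf-stage greenhouse plants sprayed with WP at graded amounts (600 l/ha, 0.2% wetting agent); ~3 wk later, visual % effect rated vs untreated controls, 100% = dead, 0% = like control.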

Setaria viridis [2] = assay: Herbicidal post-emergence action; conditions: post-emergence method; for herbicidal effect against SETVI (Setaria viridis): 80 g/ha
Summary of the method: as §1

Lolium multiflorum [3] = assay: Herbicidal post-emergence action; conditions: post-emergence method; for herbicidal effect against LOLMU (Lolium multiflorum): 80 g/ha
Summary of the method: as §1

Echinocloa crus-galli [4] = assay: Herbicidal post-emergence action; conditions: post-emergence method; for herbicidal effect against ECHCG (Echinochloa crus-galli): 80 g/ha
Summary of the method: as §1

Alopecurus myosuroides [5] = assay: Herbicidal pre-emergence action; conditions: pre-emergence method, 80 g/ha, greenhouse, visual assessment vs untreated controls
Excerpt: (§2) Seeds of monocotylidonous and dicotylidonous weed and crop plants are placed in sandy loam in wood fibre pots and covered with soil. The test compounds, formulated in the form of wettable powders (WP), are then, as an aqueous suspension with a water application rate of 600 l/ha (converted), with 0.2% of wetting agent added, applied to the surface of the covering soil in different amounts.
(§3) After the treatment, the pots are placed in a greenhouse and kept under good growth conditions for the test plants. The visual assessment of the emergence damage on the test plants is carried out after a trial period of three weeks by comparison with the untreated controls (herbicidal effect in percent: 100% effect=the plants have died, 0% effect=like control plants).

Setaria viridis [6] = assay: Herbicidal pre-emergence action; conditions: pre-emergence method, 80 g/ha, greenhouse, visual assessment vs untreated controls
Excerpt: as §2, §3

Lolium multiflorum [7] = assay: Herbicidal pre-emergence action; conditions: pre-emergence method, 80 g/ha, greenhouse, visual assessment vs untreated controls
Excerpt: as §2, §3

Echinocloa crus-galli [8] = assay: Herbicidal pre-emergence action; conditions: pre-emergence method, 80 g/ha, greenhouse, visual assessment vs untreated controls
Excerpt: as §2, §3

[9] = tested on: monocotylidonous and dicotylidonous weed and crop plants; assay: Herbicidal post-emergence action (other test plants); conditions: post-emergence method; for herbicidal effect against AVEFA (Avena fatua): 80 g/ha
Summary of the method: as §1

[10] = tested on: monocotylidonous and dicotylidonous weed and crop plants; assay: Herbicidal pre-emergence action (other test plants); conditions: pre-emergence method, 80 g/ha, greenhouse, visual assessment vs untreated controls
Excerpt: as §2, §3

| SMILES | herbicidal effect against ALOMY (Alopecurus myosuroides) (Alopecurus myosuroides [1]) | herbicidal effect against SETVI (Setaria viridis) (Setaria viridis [2]) | herbicidal effect against LOLMU (Lolium multiflorum) (Lolium multiflorum [3]) | herbicidal effect against ECHCG (Echinochloa crus-galli) (Echinocloa crus-galli [4]) | herbicidal effect ALOMY (Alopecurus myosuroides [5]) | herbicidal effect SETVI (Setaria viridis [6]) | herbicidal effect LOLMU (Lolium multiflorum [7]) | herbicidal effect ECHCG (Echinocloa crus-galli [8]) | herbicidal effect against AVEFA (Avena fatua) [9] | herbicidal effect AVEFA [10] | pest or weed control at 80 g/ha (Alopecurus myosuroides [1]; Alopecurus myosuroides, 504 h, read-out: herbicidal effect against ALOMY (Alopecurus myosuroides)) | pest or weed control at 80 g/ha (Setaria viridis [2]; Setaria viridis, 504 h, read-out: herbicidal effect against SETVI (Setaria viridis)) | pest or weed control at 80 g/ha (Lolium multiflorum [3]; Lolium multiflorum, 504 h, read-out: herbicidal effect against LOLMU (Lolium multiflorum)) | pest or weed control at 80 g/ha (Echinocloa crus-galli [4]; Echinochloa crus-galli, 504 h, read-out: herbicidal effect against ECHCG (Echinochloa crus-galli)) | pest or weed control at 80 g/ha ([9]; 504 h, Avena fatua, read-out: herbicidal effect against AVEFA (Avena fatua)) |
| --- | --- | --- | --- | --- | --- | --- | --- | --- | --- | --- | --- | --- | --- | --- | --- |
| CCc1cc(C)cc(CC)c1C1=C(O)C2CC(=NOCC(F)(F)F)CC2C1=O (stereo not shown) [I-a-70] | 90% | 60% | 100% | 100% | 80% | 60% | 80% | 80% | 0% | 60% |  |  |  |  |  |
| CCOC(=O)OC1=C(c2c(CC)cc(C)cc2CC)C(=O)[C@@H]2CC3(C[C@H]12)OCC=CCO3 (relative stereo) [I-c-11] | 80% | 90% | 90% | 100% | 90% | 90% | 90% | 100% | 80% | 70% |  |  |  |  |  |
| CCOC(=O)OC1=C(c2c(C)cc(C)cc2CC)C(=O)C2CC3(CC12)OCCO3 (racemic) [I-c-71] | 80% | 100% | 100% |  | 70% | 90% | 100% | 100% | 90% | 70% |  |  |  |  |  |
| CCOC(=O)OC1=C(c2c(C)cc(C)cc2CC)C(=O)C2CC3(CC12)OCC=CCO3 (racemic) [I-c-72] | 100% | 100% | 100% | 100% | 60% | 80% | 100% | 100% | 70% | 50% |  |  |  |  |  |
| Cc1cc(C)c(C2=C(OC(=O)C(C)C)C3CC4(CC3C2=O)OCC(C)CO4)c(C)c1 (stereo not shown) [I-b-43] | 100% | 100% | 100% | 90% | 90% | 60% | 90% | 20% | 80% | 40% |  |  |  |  |  |
| Cc1cc(C)c(C2=C(O)C3CC4(CC3C2=O)OCCO4)c(C)c1 (stereo not shown) [I-a-39] | 100% | 90% | 100% | 90% | 80% | 30% | 100% | 0% | 20% | 70% |  |  |  |  |  |
| CCc1cc(C)cc(CC)c1C1=C(OC(C)=O)[C@H]2C[C@@]3(COC(C)(C)O3)C[C@H]2C1=O [I-b-1] |  |  |  |  | 90% | 70% | 100% | 40% |  | 40% | 100% | 40% | 100% | 100% | 60% |
| C=C1CC2C(=O)C(c3c(C)cc(C)cc3CC)=C(OC(=O)C(C)(C)C)C2C1 (stereo not shown) [I-b-73] | 0% | 100% | 70% | 100% | 80% | 100% | 100% | 90% | 0% | 80% |  |  |  |  |  |
| C=C1CC2C(=O)C(c3c(C)cc(C)cc3OC)=C(O)C2C1 (stereo not shown) [I-a-45] | 0% | 80% | 0% | 80% | 80% | 100% | 80% | 100% | 0% | 60% |  |  |  |  |  |
| CCOC(=O)OC1=C(c2c(CC)cc(C)cc2CC)C(=O)C2CC3(CC12)OC(C)CC(C)O3 (stereo not shown) [I-c-13] | 70% | 90% | 100% | 100% | 90% | 60% | 80% | 60% | 80% | 50% |  |  |  |  |  |
| COc1cc(C)cc(C)c1C1=C(O)C2CC3(CC2C1=O)OCCCCO3 (stereo not shown) [I-a-50] | 100% | 100% | 100% | 100% | 100% | 70% | 100% | 80% | 100% | 60% |  |  |  |  |  |
| CCc1cc(C)cc(CC)c1C1=C(OC(=O)OC)C2CC3(CC2C1=O)OCC=CCO3 (stereo not shown) [I-c-21] | 90% | 100% | 100% | 100% | 90% | 100% | 100% | 100% | 100% | 70% |  |  |  |  |  |
| CCOC(=O)OC1=C(c2c(CC)cc(C)cc2CC)C(=O)C2CC3(CC12)OCC(C)(C)CO3 (racemic) [I-c-6] |  |  |  |  | 50% | 60% | 80% | 90% |  | 10% |  |  |  |  |  |
| CCOC(=O)OC1=C(c2c(CC)cc(C)cc2CC)C(=O)C2CC3(CC12)OCC(OCc1ccccc1)CO3 (stereo not shown) [I-c-28] | 100% | 100% | 100% | 100% | 90% | 50% |  | 100% | 100% | 60% |  |  |  |  |  |
